Drawing on patent US20110166123A1, “NOVEL COMPOSITIONS AND METHODS OF USE” (priority 2008, published 2011), this text covers EC50 for 40 molecules.

The experiment deals with human immunodeficiency virus type 1 (HIV-1). The experiment can be described thus: microbe, parasite or virus in culture. Type of experiment: cell-based. The settings on record: Human immunodeficiency virus 1, HeLa, 48 h, HIV-1 luciferase reporter, HeLa cells, 48 hours after infection. On the technique in general: In a reporter assay the amount or activity of a reporter protein is the signal.
Usually EC50 stands for the midpoint of the concentration-response curve. For `COc1nc2c(cc1NCc1ccc(F)c(F)c1)c(=O)c(C(=O)O)cn2[C@H](CO)C(C)C` [Example 20N, (S)-6-(3,4-difluorobenzylamino)-1-(1-hydroxy-3-methylbutan-2-yl)-7-methoxy-4-oxo-1,4-dihydro-1,8-naphthyridine-3-carboxylic acid], the EC50 is more than 100 nM. The molecule `CC(C)(C)[C@@H](CO)n1cc(C(=O)O)c(=O)c2cc(Cc3cccc(Cl)c3F)c(N3CCOCC3)nc21` [Example 2A, (S)-6-(3-chloro-2-fluorobenzyl)-7-morpholin-1-(1-hydroxy-3,3-dimethylbutan-2-yl)-4-oxo-1,4-dihydro-1,8-naphthyridine-3-carboxylic acid] had an EC50 of less than 10 nM. In the case of `CCCn1cc(C(=O)NN)c(=O)c2c(N)nc(SC)nc21` [Example 7C] it was more than 100 nM; in that of `COc1nc2c(cc1NC1CCCc3ccccc31)c(=O)c(C(=O)O)cn2[C@H](CO)C(C)C` (stereo partly drawn) [Example 20JJ, 1-((S)-1-hydroxy-3-methylbutan-2-yl)-7-methoxy-4-oxo-6-(1,2,3,4-tetrahydronaphthalen-1-ylamino)-1,4-dihydro-1,8-naphthyridine-3-carboxylic acid], more than 100 nM. For `COc1nc2c(cc1NCc1ccc(Cl)c(F)c1)c(=O)c(C(=O)O)cn2[C@H](CO)C(C)C` [Example 20H, (S)-6-(4-chloro-3-fluorobenzylamino)-1-(1-hydroxy-3-methylbutan-2-yl)-7-methoxy-4-oxo-1,4-dihydro-1,8-naphthyridine-3-carboxylic acid], the EC50 is more than 100 nM. As for `CC(C)(C)[C@@H](CO)n1cc(C(=O)O)c(=O)c2cc(Cc3cccc(Cl)c3F)c(OCCCCO)nc21` [Example 2G], the EC50 lay in the range of 10 to 100 nM. `COc1nc2c(cc1NCc1cc(F)cc(F)c1F)c(=O)c(C(=O)O)cn2[C@H](CO)C(C)C` [Example 20FF, (S)-1-(1-hydroxy-3-methylbutan-2-yl)-7-methoxy-4-oxo-6-(2,3,5-trifluorobenzylamino)-1,4-dihydro-1,8-naphthyridine-3-carboxylic acid] yielded an EC50 of more than 100 nM. Molecule `COc1nc2c(cc1Cc1cccc(Cl)c1F)c(=O)c(C(=O)O)cn2C(CO)CO` [Example 1M] had a half-maximal effective concentration (EC50) of more than 100 nM. The molecule `COc1nc2c(cc1Nc1cccc(Cl)c1F)c(=O)c(C(=O)O)cn2[C@H](CO)C(C)C` [Example 20OO, (S)-6-(3-chloro-2-fluorophenylamino)-1-(1-hydroxy-3-methylbutan-2-yl)-7-methoxy-4-oxo-1,4-dihydro-1,8-naphthyridine-3-carboxylic acid] yielded an EC50 of more than 100 nM. In the case of `O=C(O)c1c[nH]c2cnc(Cc3cccc(Cl)c3)nc2c1=O` [Example 10A, 2-(3-chlorobenzyl)-8-oxo-5,8-dihydropyrido[3,2-d]pyrimidine-7-carboxylic acid] it was more than 100 nM; in that of `CC(C)(C)[C@@H](CO)n1cc(C(=O)O)c(=O)c2cc(Cc3cccc(Cl)c3F)c(N3CC[C@@H](O)C3)nc21` [Example 2W], 10 to 100 nM; in that of `COc1nc2c(cc1N1CCc3ccc(F)cc3C1)c(=O)c(C(=O)O)cn2[C@H](CO)C(C)C` [Example 17N], more than 100 nM. Consider `COc1cc2c(cc1NCc1ccc(F)cc1F)c(=O)c(C(=O)O)cn2[C@H](CO)C(C)C` [Example 21D, (S)-6-(2,4-difluorobenzylamino)-1-(1-hydroxy-3-methylbutan-2-yl)-7-methxoy-4-oxo-1,4-dihydroquinoline-carboxylic acid], for which the EC50 was 10 to 100 nM. In the case of `CC(C)[C@@H](CO)n1cc(C(=O)O)c(=O)c2nc(Cc3cccc(Cl)c3)ccc21` [Example 8C, 6-(3-Chloro-benzyl)-1-((S)-1-hydroxymethyl-2-methyl-propyl)-4-oxo-1,4-dihydro-[1,5]naphthyridine-3-carboxylic acid] it was more than 100 nM; in that of `COc1nc2c(cc1NCc1ccc(Cl)c(Cl)c1)c(=O)c(C(=O)O)cn2[C@H](CO)C(C)C` [Example 20K, (S)-6-(3,4-dichlorobenzylamino)-1-(1-hydroxy-3-methylbutan-2-yl)-7-methoxy-4-oxo-1,4-dihydro-1,8-naphthyridine-3-carboxylic acid], more than 100 nM.

As to `COc1nc2c(cc1-c1cccc(C#N)c1)c(=O)c(C(=O)O)cn2[C@H](CO)C(C)C` [Example 17F], the 50% effective concentration (EC50) was more than 100 nM. In the case of `COc1nc2c(cc1Cc1c(F)cc(F)cc1F)c(=O)c(C(=O)O)cn2[C@H](CO)C(C)C` [Example 1D] it was more than 100 nM; in that of `CC(C)(C)[C@@H](CO)n1cc(C(=O)O)c(=O)c2cc(Cc3cccc(Cl)c3F)c(NCc3ccccn3)nc21` [Example 2FF], less than 10 nM; in that of `COc1nc(Cc2cccc(Cl)c2F)cc2c(=O)c(C(=O)O)cn([C@H](CO)C(C)C)c12` [Example 5D, 6-(3-Chloro-2-fluoro-benzyl)-1-((S)-1-hydroxymethyl-2-methyl-propyl)-8-methoxy-4-oxo-1,4-dihydro-1,7-naphthyridine-3-carboxylic acid], more than 100 nM.

In the case of `COc1nc2c(cc1-c1cccc(Cl)c1F)c(=O)c(C(=O)O)cn2[C@H](CO)C(C)C` [Example 17C], the EC50 is more than 100 nM.

On to `CC(C)[C@@H](CO)n1cc(C(=O)O)c(=O)c2cc(Nc3cccc(Cl)c3F)ncc21` [Example 16A, (S)-6-(3-chloro-2-fluorophenylamino)-1-(1-hydroxy-3-methylbutan-2-yl)-4-oxo-1,4-dihydro-1,7-naphthyridine-3-carboxylic acid], for which the EC50 was more than 100 nM. In the case of `CCCC(CO)n1cc(C(=O)O)c(=O)c2cc(Cc3cccc(Cl)c3F)c(OC)nc21` (stereo not shown) [Example 1J] it was 10 to 100 nM. In the case of `CC(C)(C)[C@@H](CO)n1cc(C(=O)O)c(=O)c2cc(Cc3cccc(Cl)c3F)c(NCCCO)nc21` [Example 2S] it was 10 to 100 nM; in that of `COc1cc2c(nc1Cc1cccc(Cl)c1F)c(=O)c(C(=O)O)cn2[C@H](CO)C(C)C` [Example 8D, 6-(3-Chloro-2-fluoro-benzyl)-1-((S)-1-hydroxymethyl-2-methyl-propyl)-7-methoxy-4-oxo-1,4-dihydro-[1.5]naphthyridine-3-carboxylic acid], more than 100 nM; in that of `COc1nc2c(cc1NCc1ccc(F)cc1)c(=O)c(C(=O)O)cn2[C@H](CO)C(C)C` [Example 20C, (S)-6-(4-fluorobenzylamino)-1-(1-hydroxy-3-methylbutan-2-yl)-7-methoxy-4-oxo-1,4-dihydro-1,8-naphthyridine-3-carboxylic acid], 10 to 100 nM.

In turn, `COCCCNc1nc2c(cc1Cc1cccc(Cl)c1F)c(=O)c(C(=O)O)cn2[C@H](CO)C(C)(C)C` [Example 2U] showed an EC50 of less than 10 nM. Regarding `COc1cc2c(cc1OCc1cc(Cl)ccc1F)c(=O)c(C(=O)O)cn2[C@H](CO)C(C)(C)C` [Example 29D, (S)-6-(5-chloro-2-fluorobenzyloxy)-1-(1-hydroxy-3,3-dimethylbutan-2-yl)-7-methoxy-4-oxo-1,4-dihydroquinoline-3-carboxylic acid], the EC50 is more than 100 nM. For `COc1nc2c(cc1Cc1cccc(Cl)c1F)c(=O)c(C(=O)O)cn2C1CCOCC1` [Example 1N], the EC50 is more than 100 nM. In the case of `COc1nc2c(cc1NCc1ccc(F)c(Cl)c1)c(=O)c(C(=O)O)cn2[C@H](CO)C(C)C` [Example 20F, (S)-6-(3-chloro-4-fluorobenzylamino)-1-(1-hydroxy-3-methylbutan-2-yl)-7-methoxy-4-oxo-1,4-dihydro-1,8-naphthyridine-3-carboxylic acid] it was more than 100 nM. In the case of `COc1nc2c(cc1N(C)Cc1ccccc1F)c(=O)c(C(=O)O)cn2[C@H](CO)C(C)C` [Example 20U, (S)-6-((2-fluorobenzyl)(methyl)amino)-1-(1-hydroxy-3-methylbutan-2-yl)-7-methoxy-4-oxo-1,4-dihydro-1,8-naphthyridine-3-carboxylic acid] it was more than 100 nM; in that of `COc1nc2c(cc1CNc1cccc3c1CCCC3)c(=O)c(C(=O)O)cn2[C@H](CO)C(C)C` [Example 12E], more than 100 nM. In the case of `COc1nc2c(cc1NCCc1ccc(F)cc1)c(=O)c(C(=O)O)cn2[C@H](CO)C(C)C` [Example 20T, (S)-6-(4-fluorophenethylamino)-1-(1-hydroxy-3-methylbutan-2-yl)-7-methoxy-4-oxo-1,4-dihydro-1,8-naphthyridine-3-carboxylic acid] it was more than 100 nM. On to `O=C(O)c1cn([C@H](CO)CC2CCCCC2)c2cnc(Cc3cccc(Cl)c3F)cc2c1=O` [Example 5N], for which the EC50 is more than 100 nM.

The molecule `COc1nc2c(cc1N[C@H](C)c1ccc(F)cc1)c(=O)c(C(=O)O)cn2[C@H](CO)C(C)C` [Example 20LL, 6-((R)-1-(4-fluorophenyl)ethylamino)-1-((S)-1-hydroxy-3-methylbutan-2-yl)-7-methoxy-4-oxo-1,4-dihydro-1,8-naphthyridine-3-carboxylic acid] had an EC50 of more than 100 nM. In the case of `CC(C)(C)[C@@H](CO)n1cc(C(=O)O)c(=O)c2cc(Cc3cccc(Cl)c3F)c(OCCN3CCOCC3)nc21` [Example 2M] it was 10 to 100 nM. In turn, `CC(C)[C@@H](CO)n1cc(C(=O)O)c(=O)c2cc(Cc3cccc(Cl)c3F)cnc21` [Example 4A, (S)-6-(3-chloro-2-fluorobenzyl)-1-(1-hydroxy-3-methylbutan-2-yl)-4-oxo-1,4-dihydro-1,8-naphthyridine-3-carboxylic acid] returned an EC50 of 10 to 100 nM. As for `COc1nc2c(cc1NCc1ccc(F)cc1F)c(=O)c(C(=O)O)cn2[C@H](CO)C(C)C` [Example 20R, (S)-6-(2,4-difluorobenzylamino)-1-(1-hydroxy-3-methylbutan-2-yl)-7-methoxy-4-oxo-1,4-dihydro-1,8-naphthyridine-3-carboxylic acid], the EC50 lay in the range of 10 to 100 nM. Molecule `CC(C)(C)[C@@H](CO)n1cc(C(=O)O)c(=O)c2cc(Cc3cccc(Cl)c3F)c(NCCCn3ccnc3)nc21` [Example 2GG] registered an EC50 of 10 to 100 nM. `COCCCOc1nc2c(cc1Cc1cccc(Cl)c1F)c(=O)c(C(=O)O)cn2[C@H](CO)C(C)(C)C` [Example 2I] showed an EC50 of 10 to 100 nM.

Turning to `COc1nc2c(cc1NCc1cc(F)c(F)c(F)c1)c(=O)c(C(=O)O)cn2[C@H](CO)C(C)C` [Example 20DD, (S)-1-(1-hydroxy-3-methylbutan-2-yl)-7-methoxy-4-oxo-6-(3,4,5-trifluorobenzylamino)-1,4-dihydro-1,8-naphthyridine-3-carboxylic acid], the EC50 is more than 100 nM.
